Here are results for 30 molecules from US10358446B2, “Bruton's tyrosine kinase inhibitors” (Zibo Biopolar Changsheng Pharmaceutical Co. Ltd., priority 2015, dated 2019).

The target in this test is BTK (Homo sapiens (Human), UniProt Q06187). The test is described as follows: Btk kinase assay (HTRF). The following applies: [ATP]=80 μM, BTK=3.4 nM; read-out: BTK Inhibition. The test is classed as biochemical. As to the method: Btk kinase activity was determined using a homogenous time resolved fluorescence (HTRF) methodology. Measurements were performed in a reaction volume of 15 μL using 384-well assay plates. Kinase enzyme, inhibitor, ATP and 1 μM peptide substrate were incubated in a reaction buffer compose of Hepes 50 mM (pH7.0), NaN3 0.02%, BSA 0.01%, Orthocanadate 0.1 mM. After one hour, the kinase reaction was quenched by the addition of […] antibody and XL-665 in 1× Detection buffer containing 60 mM EDTA (Cisbio), and the mixture was allowed to incubate for one hour. The HTRF signal was measured on a multimode plate reader (EnVision® Multilabel Reader, Perkin Elmer) with an excitation wavelength (λEx) of 330 nm and detection wavelengths (λEm) of 615 and 665 nrm. Activity was determined by the ratio of the fluorescence at 665 nm to that at 615 nm. For each compound, enzyme activity as measured at various concentrations of compound, Negative control reactions were performed in the absence of inhibitor in two replicates and eight no enzyme controls were used to determine baseline fluorescence levels. IC50s were obtained according to the equation: […] For BTK assay, [ATP]=80 μM, BTK=3.4 nM.
BTK, sequence (Q06187 whole entry, species assumed): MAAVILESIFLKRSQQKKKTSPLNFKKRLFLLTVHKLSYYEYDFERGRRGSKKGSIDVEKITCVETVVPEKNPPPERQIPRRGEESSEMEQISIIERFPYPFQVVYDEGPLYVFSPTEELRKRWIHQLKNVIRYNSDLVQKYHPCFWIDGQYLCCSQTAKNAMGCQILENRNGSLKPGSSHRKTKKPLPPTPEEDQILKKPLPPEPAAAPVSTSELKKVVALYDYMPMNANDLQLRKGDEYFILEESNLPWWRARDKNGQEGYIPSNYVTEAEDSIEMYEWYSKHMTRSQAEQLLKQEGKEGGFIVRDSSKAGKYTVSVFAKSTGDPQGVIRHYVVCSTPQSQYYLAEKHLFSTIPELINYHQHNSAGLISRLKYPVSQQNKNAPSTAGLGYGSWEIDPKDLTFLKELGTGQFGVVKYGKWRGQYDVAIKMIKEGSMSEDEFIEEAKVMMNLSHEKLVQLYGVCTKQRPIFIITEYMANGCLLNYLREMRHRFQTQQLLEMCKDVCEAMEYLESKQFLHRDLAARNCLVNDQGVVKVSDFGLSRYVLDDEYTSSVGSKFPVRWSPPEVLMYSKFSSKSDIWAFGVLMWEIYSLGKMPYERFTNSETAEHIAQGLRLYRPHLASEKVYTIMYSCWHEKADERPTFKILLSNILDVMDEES
For orientation: In TR-FRET formats the signal depends on donor and acceptor labels being close together.
For `C=CC(=O)N1CCC[C@@H](n2c(=O)n(-c3ccc(Oc4cccc(C)c4C)cc3)c3cnccc32)C1` [Example 58, (R)-1-(1-acryloylpiperidin-3-yl)-3-(4-(2,3-dimethylphenoxy)phenyl)-1H-imidazo[4,5-c]pyridin-2(3H)-one], the IC50 was 10 to 100 nM.
Next, `C=CC(=O)Nc1cccc(-n2c(=O)n(-c3ccc(C(=O)N4CCOCC4)cc3)c3cnccc32)c1` [Example 253, N-(3-(3-(4-(morpholine-4-carbonyl)phenyl)-2-oxo-2,3-dihydro-1H-imidazo[4,5-c]pyridin-1-yl)phenyl)acrylamide]: 1000 to 10000 nM; `C=CC(=O)Nc1cccc(-n2c(=O)n(-c3ccc(Oc4cccc(OC)c4)c(C)c3)c3cnccc32)c1` [Example 62, N-(3-(3-(4-(3-methoxyphenoxy)-3-methylphenyl)-2-oxo-2,3-dihydro-1H-imidazo[4,5-c]pyridin-1-yl)phenyl)acrylamide]: 10 to 100 nM.
`C=CC(=O)N1CC[C@@H](n2c(=S)n(-c3ccc(Oc4cccc(C)c4)cc3)c3cnccc32)C1` [Example 11, (R)-1-(3-(2-thioxo-3-(4-(m-tolyloxy)phenyl)-2,3-dihydro-1H-imidazo[4,5-c]pyridin-1-yl)pyrrolidin-1-yl)prop-2-en-1-one]: the IC50 was in the range of 100 to 1000 nM.
As to `C=CC(=O)N1CC[C@@H](n2c(=O)n(-c3ccc(Oc4cccc(Cl)c4Cl)cc3)c3cnccc32)C1` [Example 99, (R)-1-(1-acryloylpyrrolidin-3-yl)-3-(4-(2,3-dichlorophenoxy)phenyl)-1,3-dihydro-2H-imidazo[4,5-c]pyridin-2-one], the IC50 was in the range of 10 to 100 nM.
Next, `C=CC(=O)Nc1cccc(-n2c(=O)n(-c3ccc(OCc4ccccc4C(F)(F)F)cc3)c3cnccc32)c1` [Example 232, N-(3-(2-oxo-3-(4-((2-(trifluoromethyl)benzyl)oxy)phenyl)-2,3-dihydro-1H-imidazo[4,5-c]pyridin-1-yl)phenyl)acrylamide]: 10 to 100 nM.
Next, `C=CC(=O)N1CCC[C@@H](n2c(=O)n(-c3ccc(Oc4ccccc4)c(Cl)c3)c3cnccc32)C1` [Example 107, (R)-1-(1-acryloylpiperidin-3-yl)-3-(3-chloro-4-phenoxyphenyl)-1H-imidazo[4,5-c]pyridin-2(3H)-one]: 10 to 100 nM; `C=CC(=O)Nc1cccc(-n2c(=O)n(-c3cccc(Oc4cccc(Cl)c4F)c3)c3cnccc32)c1` [Example 96, N-(3-(3-(3-(3-chloro-2-fluorophenoxy)phenyl)-2-oxo-2,3-dihydro-1H-imidazo[4,5-c]pyridin-1-yl)phenyl)acrylamide]: 10 to 100 nM.
For `C=CC(=O)Nc1cccc(-n2c(=O)n(-c3ccc(Oc4cccc(C)c4C)c(Cl)c3)c3cnccc32)c1` [Example 148, N-(3-(3-(3-chloro-4-(2,3-dimethylphenoxy)phenyl)-2-oxo-2,3-dihydro-1H-imidazo[4,5-c]pyridin-1-yl)phenyl)acrylamide] the value was 10 to 100 nM.
On to `C=CC(=O)N1CCC(n2c(=O)n(-c3ccc(Oc4ccncc4)cc3)c3cnccc32)C1` (stereo not drawn) [Example 164, 1-(1-acryloylpyrrolidin-3-yl)-3-(4-(pyridin-4-yloxy)phenyl)-1H-imidazo[4,5-c]pyridin-2(3H)-one], for which the IC50 is 1000 to 10000 nM.
Next, `C=CC(=O)N1CCC(n2c(=O)n(-c3ccc(Oc4cccnn4)cc3)c3cnccc32)C1` (stereo not drawn) [Example 165, 1-(1-acryloylpyrrolidin-3-yl)-3-(4-(pyridazin-3-yloxy)phenyl)-1H-imidazo[4,5-c]pyridin-2(3H)-one]: 100 to 1000 nM.
Next, `C=CC(=O)N1CC[C@@H](n2c(=O)n(-c3ccc(Oc4ccccc4C)cc3)c3cnccc32)C1` [Example 83, (R)-1-(1-acryloylpyrrolidin-3-yl)-3-(4-(o-tolyloxy)phenyl)-1H-imidazo[4,5-c]pyridin-2(3H)-one]: 10 to 100 nM; `C=CC(=O)Nc1cccc(-n2c(=O)n(-c3ccc(C(=O)NCc4cccc(OC)c4)cc3)c3cnccc32)c1` [Example 252, 4-(1-(3-acrylamidophenyl)-2-oxo-1H-imidazo[4,5-c]pyridin-3(2H)-yl)-N-(3-methoxybenzyl)benzamide]: 100 to 1000 nM; `C=CC(=O)Nc1cccc(-n2c(=O)n(-c3ccc(C4CC4)cc3)c3cnccc32)c1` [Example 278, N-(3-(3-(4-cyclopropylphenyl)-2-oxo-2,3-dihydro-1H-imidazo[4,5-c]pyridin-1-yl)phenyl)acrylamide]: 10 to 100 nM.
Regarding `C=CC(=O)N1CC[C@@H](n2c(=O)n(-c3ccc(C(=O)NCc4cccc(OC)c4)cc3)c3cnccc32)C1` [Example 256, (R)-4-(1-(1-acryloylpyrrolidin-3-yl)-2-oxo-1H-imidazo[4,5-c]pyridin-3(2H)-yl)-N-(3-methoxybenzyl)benzamide], the IC50 is 1000 to 10000 nM.
Next, `C=CC(=O)N1CC[C@@H](n2c(=O)n(-c3ccc(Oc4cccc(OC(C)C)c4)cc3)c3cnccc32)C1` [Example 25, (R)-1-(1-acryloylpyrrolidin-3-yl)-3-(4-(3-isopropoxyphenoxy)phenyl)-1H-imidazo[4,5-c]pyridin-2(3H)-one]: at most 10 nM; `C=CC(=O)Nc1cccc(-n2c(=O)n(-c3ccc(OCc4c(F)cccc4F)c(F)c3)c3cnccc32)c1` [Example 227, N-(3-(3-(4-((2,6-difluorobenzyl)oxy)-3-fluorophenyl)-2-oxo-2,3-dihydro-1H-imidazo[4,5-c]pyridin-1-yl)phenyl)acrylamide]: 100 to 1000 nM; `C=CC(=O)N1CC[C@@H](n2c(=O)n(-c3ccc(OCc4cccc(C(F)(F)F)c4)cc3)c3cnccc32)C1` [Example 211, (R)-1-(1-acryloylpyrrolidin-3-yl)-3-(4-((3-(trifluoromethyl)benzyl)oxy)phenyl)-1H-imidazo[4,5-c]pyridin-2(3H)-one]: 100 to 1000 nM.
For the molecule `C=CC(=O)Nc1cccc(-n2c(=O)n(-c3ccc(Oc4cccc(F)c4C)cc3)c3cnccc32)c1` [Example 79, N-(3-(3-(4-(3-fluoro-2-methylphenoxy)phenyl)-2-oxo-2,3-dihydro-1H-imidazo[4,5-c]pyridin-1-yl)phenyl)acrylamide], the IC50 lay in the range of 10 to 100 nM.
For `C=CC(=O)N1CC[C@@H](n2c(=O)n(-c3ccc(-c4ccc(Cl)cc4Cl)cc3)c3cnccc32)C1` [Example 275] the value was at least 10000 nM; for `C=CC(=O)Nc1cccc(-n2c(=O)n(-c3ccc(Oc4ccccc4)c(F)c3)c3cnccc32)c1` [Example 93, N-(3-(3-(3-fluoro-4-phenoxyphenyl)-2-oxo-2,3-dihydro-1H-imidazo[4,5-c]pyridin-1-yl)phenyl)acrylamide], at most 10 nM; for `CC#CC(=O)N1CC[C@@H](n2c(=O)n(-c3ccc(Oc4cccc(OC)c4F)cc3)c3cncc(C)c32)C1` [Example 173, (R)-1-(1-(but-2-ynoyl)pyrrolidin-3-yl)-3-(4-(2-fluoro-3-methoxyphenoxy)phenyl)-7-methyl-1H-imidazo[4,5-c] pyridin-2(3H)-one], 10 to 100 nM.
Next, `C=CC(=O)N1CCC[C@@H](n2c(=O)n(-c3ccc(Oc4ccccc4)cc3)c3ccncc32)C1` [Example 122, (R)-3-(1-acryloylpiperidin-3-yl)-1-(4-phenoxyphenyl)-1H-imidazo[4,5-c]pyridin-2(3H)-one]: 1000 to 10000 nM.
For `C=CC(=O)N1CC[C@@H](n2c(=O)n(-c3ccc(Oc4cccc(OCC)c4)cc3)c3cnccc32)C1` [Example 24, (R)-1-(1-acryloylpyrrolidin-3-yl)-3-(4-(3-ethoxyphenoxy)phenyl)-1H-imidazo[4,5-c]pyridin-2(3H)-one] the value was 10 to 100 nM; for `C=CC(=O)N1CCC[C@@H](n2c(=O)n(-c3ccc(Oc4cccc(OC)c4F)cc3)c3cnccc32)C1` [Example 186, (R)-1-(1-acryloylpiperidin-3-yl)-3-(4-(2-fluoro-3-methoxyphenoxy)phenyl)-1H-imidazo[4,5-c]pyridin-2(3H)-one], at most 10 nM.
As for `C=CC(=O)N1CC[C@@H](n2c(=O)n(-c3ccc(Oc4cc(F)cc(F)c4)c(Cl)c3)c3cnccc32)C1` [Example 39, (R)-1-(1-acryloylpyrrolidin-3-yl)-3-(3-chloro-4-(3,5-difluorophenoxy)phenyl)-1H-imidazo[4,5-c]pyridin-2(3H)-one], the IC50 was 10 to 100 nM.
Take `CN(C/C=C/C(=O)N1CC[C@@H](n2c(=O)n(-c3ccc(Oc4ccccc4)cc3)c3cnccc32)C1)C1CC1` [Example 187, (R,E)-1-(1-(4-(cyclopropyl(methyl)amino)but-2-enoyl)pyrrolidin-3-yl)-3-(4-phenoxyphenyl)-1H-imidazo[4,5-c]pyridin-2(3H)-one]: the IC50 lay in the range of 100 to 1000 nM.
Regarding `C=CC(=O)Nc1cccc(-n2c(=O)n(-c3ccc(Oc4ccccc4)cc3)c3ncccc32)c1` [Example 119, N-(3-(2-oxo-3-(4-phenoxyphenyl)-2,3-dihydro-1H-imidazo[4,5-b]pyridin-1-yl)phenyl)acrylamide], the IC50 lay in the range of 1000 to 10000 nM.
Next, `C=C(C)C(=O)N1CC[C@@H](n2c(=O)n(-c3cccc(Oc4ccccc4)c3)c3cnccc32)C1` [Example 156, (R)-1-(1-methacryloylpyrrolidin-3-yl)-3-(3-phenoxyphenyl)-1H-imidazo[4,5-c]pyridin-2(3H)-one]: 1000 to 10000 nM; `C=CC(=O)N1CCC[C@@H](n2c(=O)n(-c3ccc(Oc4cccc(Cl)c4C)cc3)c3cnccc32)C1` [Example 134, (R)-1-(1-acryloylpiperidin-3-yl)-3-(4-(3-chloro-2-methylphenoxy)phenyl)-1H-imidazo[4,5-c]pyridin-2(3H)-one]: 10 to 100 nM.
